Read-outs that look alike come from different tables or passages of the source.

Data set [1] concerns TSLP-evoked TARC release in human peripheral blood mononuclear cells. Description: Inhibition of TSLP-evoked TARC release in human PBMC. The class given is cell-based. Conditions: PBMC from 3 to 5 donors, TSLP 10 ng/mL, 48 hours, read-out: pIC50 ± st. dev., inhibition of TSLP-evoked TARC release (converted).
Data set [2] concerns IL-13-induced STAT6 phosphorylation in the human bronchial epithelial cell line BEAS-2B. Description: IL-13-induced STAT6 phosphorylation in BEAS-2B cells. The class given is cell-based.
Data set [3] deals with Abl2 (Homo sapiens, UniProt P42684). As to the kind of experiment: biochemical. Conditions: ATP 10 μM.
Abl2, sequence (P42684 whole entry): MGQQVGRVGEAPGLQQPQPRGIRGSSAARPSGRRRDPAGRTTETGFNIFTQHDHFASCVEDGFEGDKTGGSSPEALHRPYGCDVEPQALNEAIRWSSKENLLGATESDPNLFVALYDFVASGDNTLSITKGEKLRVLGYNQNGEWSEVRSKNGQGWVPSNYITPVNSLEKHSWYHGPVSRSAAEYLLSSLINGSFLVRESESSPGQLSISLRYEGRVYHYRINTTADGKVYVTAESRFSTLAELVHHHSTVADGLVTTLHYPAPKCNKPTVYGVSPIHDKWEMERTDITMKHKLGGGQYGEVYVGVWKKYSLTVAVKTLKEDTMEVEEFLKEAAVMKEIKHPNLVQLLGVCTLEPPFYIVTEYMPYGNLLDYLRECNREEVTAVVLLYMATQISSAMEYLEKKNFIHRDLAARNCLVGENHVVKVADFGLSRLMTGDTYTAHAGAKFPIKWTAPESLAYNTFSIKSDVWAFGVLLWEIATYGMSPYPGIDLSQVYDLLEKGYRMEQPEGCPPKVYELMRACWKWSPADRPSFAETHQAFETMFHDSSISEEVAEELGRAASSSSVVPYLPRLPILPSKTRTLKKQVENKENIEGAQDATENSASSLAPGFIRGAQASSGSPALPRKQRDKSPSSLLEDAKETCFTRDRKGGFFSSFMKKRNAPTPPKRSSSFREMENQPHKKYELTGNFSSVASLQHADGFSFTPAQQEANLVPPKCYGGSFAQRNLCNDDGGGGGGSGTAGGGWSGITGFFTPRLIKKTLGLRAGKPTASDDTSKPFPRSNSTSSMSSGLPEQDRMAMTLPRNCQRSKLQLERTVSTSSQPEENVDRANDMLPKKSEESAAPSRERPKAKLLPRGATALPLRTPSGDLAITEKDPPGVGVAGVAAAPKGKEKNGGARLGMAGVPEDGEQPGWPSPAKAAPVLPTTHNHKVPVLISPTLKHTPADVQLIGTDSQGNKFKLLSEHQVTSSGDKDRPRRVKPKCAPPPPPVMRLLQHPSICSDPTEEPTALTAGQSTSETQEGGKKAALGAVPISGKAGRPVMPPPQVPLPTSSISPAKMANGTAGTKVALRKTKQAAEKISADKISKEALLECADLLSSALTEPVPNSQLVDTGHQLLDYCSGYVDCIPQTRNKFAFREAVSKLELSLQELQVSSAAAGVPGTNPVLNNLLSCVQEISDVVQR
Data set [4] deals with Abl1 (Homo sapiens, UniProt P00519). Description: Biochemical ABL1 kinase assay (33P-ATP). Conditions: at 1 μM; ATP 10 μM.
Abl1, sequence (P00519 whole entry): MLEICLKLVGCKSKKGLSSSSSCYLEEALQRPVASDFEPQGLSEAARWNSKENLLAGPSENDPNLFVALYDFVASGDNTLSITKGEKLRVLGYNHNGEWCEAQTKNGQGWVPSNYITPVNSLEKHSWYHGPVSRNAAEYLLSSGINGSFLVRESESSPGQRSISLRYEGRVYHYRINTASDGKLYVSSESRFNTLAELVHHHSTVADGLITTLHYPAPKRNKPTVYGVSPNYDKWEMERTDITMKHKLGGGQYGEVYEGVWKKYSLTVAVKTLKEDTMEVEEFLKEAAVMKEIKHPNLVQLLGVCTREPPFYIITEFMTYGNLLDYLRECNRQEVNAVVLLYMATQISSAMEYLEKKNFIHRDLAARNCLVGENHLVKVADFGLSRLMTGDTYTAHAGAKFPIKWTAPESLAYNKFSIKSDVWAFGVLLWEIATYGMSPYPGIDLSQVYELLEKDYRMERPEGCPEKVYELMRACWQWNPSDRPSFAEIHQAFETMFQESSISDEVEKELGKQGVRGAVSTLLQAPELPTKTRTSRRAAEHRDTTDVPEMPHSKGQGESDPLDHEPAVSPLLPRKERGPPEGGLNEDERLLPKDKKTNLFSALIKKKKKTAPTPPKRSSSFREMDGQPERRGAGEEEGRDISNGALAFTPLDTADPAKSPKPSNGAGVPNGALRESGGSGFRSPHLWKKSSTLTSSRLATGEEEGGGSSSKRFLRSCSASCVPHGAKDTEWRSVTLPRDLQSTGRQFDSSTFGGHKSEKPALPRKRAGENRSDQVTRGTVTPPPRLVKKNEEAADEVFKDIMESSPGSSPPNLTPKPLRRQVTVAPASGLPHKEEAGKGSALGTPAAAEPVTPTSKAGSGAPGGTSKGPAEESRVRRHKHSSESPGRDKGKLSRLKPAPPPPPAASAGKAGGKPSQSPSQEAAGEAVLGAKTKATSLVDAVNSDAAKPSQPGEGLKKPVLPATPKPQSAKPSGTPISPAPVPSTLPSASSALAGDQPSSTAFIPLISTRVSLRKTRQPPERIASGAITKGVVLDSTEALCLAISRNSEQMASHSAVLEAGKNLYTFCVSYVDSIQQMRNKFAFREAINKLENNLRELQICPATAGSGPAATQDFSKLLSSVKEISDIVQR
The subject of data set [5] is IL-2 stimulated pSTAT5 in Tall-1 T cells (JAK1/3). As to the kind of experiment: Inhibition of IL-2 stimulated pSTAT5 in Tall-1 T cells. Conditions: Homo sapiens, IL-2 300 ng/mL, AlphaLisa pSTAT5, read-out: Tall-1 pIC50 (converted). The class given is cell-based. Here is the method:
Assay 2: Inhibition of IL-2 Stimulated pSTAT5 in Tall-1 T Cells
The potency of test compounds for inhibition of interleukin-2 (IL-2) stimulated STATS phosphorylation was measured in the Tall-1 human T cell line (DSMZ) using AlphaLisa. Because IL-2 signals through JAK1/3, this assay provides a measure of JAK1/3 cellular potency.
Phosphorylated STATS was measured via the AlphaLISA SureFire Ultra pSTAT5 (Tyr694/699) kit (PerkinElmer).
Human T cells from the Tall-1 cell line were cultured in a 37° C., 5% CO2 humidified incubator in RPMI (Life Technologies) supplemented with 15% Heat Inactivated Fetal Bovine Serum (FBS, Life Technologies), 2mM Glutamax (Life Technologies), 25 mM HEPES (Life Technologies) and 1X Pen/Strep (Life Technologies). […] Phosphorylated STATS was measured via the pSTAT5 AlphaLisa kit (PerkinElmer). […] Luminescence was measured with excitation at 689 nm and emission at […] using an EnVision plate reader (PerkinElmer) under green filtered <100 lux light.
To determine the inhibitory potency of test compounds in response to IL-2, the average emission intensity of beads bound to pSTAT5 was measured in a human T cell line. IC50 values were determined from analysis of the inhibition curves of signal intensity versus compound concentration. Data are expressed as pIC50 (negative decadic logarithm IC50) values (mean±standard deviation).

Data set [6] in a line: Pharmacokinetics in plasma and lung in mouse. It counts as in vivo. Conditions: single oral aspiration 0.2 mg/mL 50 μL. The protocol:
Assay 5: Pharmacokinetics in Plasma and Lung in Mouse
Plasma and lung concentrations of test compounds and ratios thereof were determined in the following manner. BALB/c mice from Charles River Laboratories were used in the assay. Test compounds were individually formulated in 20% propylene glycol in pH 4 citrate buffer at a concentration of 0.2 mg/mL and 50 μL of the dosing solution was introduced into the trachea of a mouse by oral aspiration. At various time points (typically 0.167, 2, 6, 24 hr) post dosing, blood samples were removed via cardiac puncture and intact lungs were excised from the mice. Blood samples were centrifuged (Eppendorf centrifuge, 5804R) for 4 minutes at approximately 12,000 rpm at 4° C. to collect plasma. […] Plasma and lung concentrations of test compound were determined by LC-MS analysis against analytical standards constructed into a standard curve in the test matrix. A lung-to-plasma ratio was determined as the ratio of the lung AUC in μg hr/g to the plasma AUC in μg hr/mL, where AUC is conventionally defined as the area under the curve of test compound concentration vs. time.

The nature of data set [7]: Human plasma protein binding. The class given is in vitro ADME.

`CCc1cc(O)ccc1-c1ccc2c(-c3nc4c([nH]3)CN(C(C)C)[C@H](C(=O)N3CC(N(C)C)C3)C4)n[nH]c2c1` [Compound 1, (S)-(3-(dimethylamino)azetidin-1-yl)(2-(6-(2-ethyl-4-hydroxyphenyl)-1H-indazol-3-yl)-5-isopropyl-4,5,6,7-tetrahydro-3H-imidazo[4,5-c]pyridin-6-yl)methanone]: the IC50 is 0.0631 µM in data set [1]; 0.362 µg/mL in data set [2] (JAK IC50 divided by the fraction unbound, read-out: binding-corrected JAK IC50); 0.0069 µg/mL in data set [2] (obtained from pIC50 of 7.9, based on a MW of 545.7, read-out: JAK IC50); 0.0126 µM in data set [2] (read-out: pIC50 for IL-13-induced STAT6 phosphorylation (converted)); 0.015 µM in data set [3]; 0.00251 µM in data set [5]. Moreover, the inhibition at 1 µM in data set [4] was determined as 90%. Further, the “Lung Tissue AUC(0-24)” value in data set [6] is 54.5 µg·h/g. Further, in data set [6], the “Plasma AUC(0-24)” value came out at 943 ng·h/mL. In data set [7], this compound returned a free fraction (fraction unbound) of 0.019. In addition, in data set [7], the “human plasma protein binding” value came out at 98.1%.

These data come from patent US20210346357A1 (priority 2020, published 2021).
